What was measured:
[1] = test system: Human dermal fibroblasts (HDFa); assay: NAD+ levels in human dermal fibroblasts treated for 24 hrs; format: cell-based
Procedure: A and B) Human dermal fibroblasts (HDFa) were treated with various concentration of NMN extract or pure NMN from Sigma (St. Louis, Mo.) respectively for 24 hrs and NAD+ levels were determined.
A) and B) Human dermal fibroblasts (HDFa) were treated with 50 μM of pure NMN and different concentration of Folate or S-adenosyl-L-methionine (SAM) respectively for 24 hrs and NAD^+ levels were determined.
The effect of pure NMN and partially purified NMN extract on the NAD^+ level in cells was investigated. Briefly, human dermal fibroblasts (HDFa) were treated with varying concentrations of NMN extract or pure NMN for 24 hours and NAD^+ levels were determined. Pure NMN was obtained from Sigma. Partially purified NMN extract was obtained using the methods described above.

[2] = cigarette smokers, small clinical trial; cited from earlier work

NC(=O)c1ccc[n+]([C@@H]2O[C@H](COP(=O)([O-])O)[C@@H](O)[C@H]2O)c1 [Pure NMN, nicotinamide mononucleotide]
NAD+ levels in cells ([1]; varying concentrations, 24 hours): increased levels of NAD^+

C[S+](CC[C@H](N)C(=O)O)C[C@H]1O[C@@H](n2cnc3c(N)ncnc32)[C@H](O)[C@@H]1O (stereo partly drawn) [SAM, S-adenosyl-L-methionine]
effect for raising NAD+ levels in combination with NMN ([1]; 50 μM pure NMN plus different concentrations of Folate or SAM, 24 hrs): synergistic effect

Cc1nc(-c2cccnc2)sc1C(=O)Nc1ccccc1-c1cn2c(CN3CCOCC3)csc2n1 [SRT2104]
serum lipid profile (total cholesterol, LDL and triglycerides) [2]: improved the serum lipid profile

— patent US20160287621A1, “BIOLOGICAL PRODUCTION OF NAD PRECURSORS AND ANALOGS” (PRESIDENT AND FELLOWS OF HARVARD COLLEGE, priority 2013, published 2016)
